# Experimental data published in ChEMBL document CHEMBL2169838, “Synthesis and biological evaluation of the 1-arylpyrazole class of σ(1) receptor antagonists: identification of 4-{2-[5-methyl-1-(naphthalen-2-yl)-1H-pyrazol-3-yloxy]ethyl}morpholine (S1RA, E-52862)” (J Med Chem, 2012).
# Activity calls are given as the source filed them. The calls are words filed in the database; no cut-off is given here.
# Key:
# [1] = molecular target: Sigma non-opioid intracellular receptor 1 (Homo sapiens, UniProt Q99720); assay: biochemical
# Description: Displacement of [3H](+)pentazocine from human sigma 1 receptor transfected in HEK293 cell membranes after 120 mins by scintillation counter
# [2] = Displacement of [3H]di-o-tolylguanidine from sigma 2 receptor in guinea pig brain membranes after 120 mins by scintillation counter; assay type: cell membranes, Cavia porcellus, Membrane
# [3] = molecular target: Voltage-gated inwardly rectifying potassium channel KCNH2 (Homo sapiens, UniProt Q12809)
# Description: Inhibition of human ERG transfected in HEK293 cell membranes by whole cell patch clamp assay
# [4] = Intrinsic clearance in human liver microsomes assessed as per mg of protein at 10 uM; assay type: ADME, Microsome; conditions: read-out: CLH
# Mus musculus [5] = assay: Analgesic activity in CD1 mouse assessed as inhibition of capsaicin-induced mechanical hypersensitivity at 16 mg/kg, ip administered 15 mins prior to capsaicin challenge measured 30 mins post capsaicin challenge; assay type: functional; conditions: route intraperitoneal
# Mus musculus [6] = assay: Inhibition of capsaicin-induced mechanical hypersensitivity in CD1 mouse assessed as paw withdrawal latency at 32 mg/kg, ip administered 15 mins prior to capsaicin challenge measured 30 mins post capsaicin challenge; assay type: functional; conditions: route intraperitoneal
# Mus musculus [7] = assay: Neurotoxicity in CD1 mouse assessed as motor impairment at 32 to 64 mg/kg, ip measured after 30 to 180 mins by rotarod test; assay type: toxicity, organism-based; design: route intraperitoneal; conditions: in vivo
# Mus musculus [8] = assay: Antiallodynic activity in CD1 mouse partial sciatic nerve ligation model assessed as inhibition of mechanical allodynia at 16 to 64 mg/kg, ip administered 30 mins by von Frey test; assay type: functional, organism-based
# Mus musculus [9] = assay: Antihyperalgesic activity in CD1 mouse partial sciatic nerve ligation model assessed as inhibition of thermal hyperalgesia at 16 to 64 mg/kg, ip administered 45 mins by plantar test; assay type: functional, organism-based
# Chain of Voltage-gated inwardly rectifying potassium channel KCNH2 (Q12809 whole entry): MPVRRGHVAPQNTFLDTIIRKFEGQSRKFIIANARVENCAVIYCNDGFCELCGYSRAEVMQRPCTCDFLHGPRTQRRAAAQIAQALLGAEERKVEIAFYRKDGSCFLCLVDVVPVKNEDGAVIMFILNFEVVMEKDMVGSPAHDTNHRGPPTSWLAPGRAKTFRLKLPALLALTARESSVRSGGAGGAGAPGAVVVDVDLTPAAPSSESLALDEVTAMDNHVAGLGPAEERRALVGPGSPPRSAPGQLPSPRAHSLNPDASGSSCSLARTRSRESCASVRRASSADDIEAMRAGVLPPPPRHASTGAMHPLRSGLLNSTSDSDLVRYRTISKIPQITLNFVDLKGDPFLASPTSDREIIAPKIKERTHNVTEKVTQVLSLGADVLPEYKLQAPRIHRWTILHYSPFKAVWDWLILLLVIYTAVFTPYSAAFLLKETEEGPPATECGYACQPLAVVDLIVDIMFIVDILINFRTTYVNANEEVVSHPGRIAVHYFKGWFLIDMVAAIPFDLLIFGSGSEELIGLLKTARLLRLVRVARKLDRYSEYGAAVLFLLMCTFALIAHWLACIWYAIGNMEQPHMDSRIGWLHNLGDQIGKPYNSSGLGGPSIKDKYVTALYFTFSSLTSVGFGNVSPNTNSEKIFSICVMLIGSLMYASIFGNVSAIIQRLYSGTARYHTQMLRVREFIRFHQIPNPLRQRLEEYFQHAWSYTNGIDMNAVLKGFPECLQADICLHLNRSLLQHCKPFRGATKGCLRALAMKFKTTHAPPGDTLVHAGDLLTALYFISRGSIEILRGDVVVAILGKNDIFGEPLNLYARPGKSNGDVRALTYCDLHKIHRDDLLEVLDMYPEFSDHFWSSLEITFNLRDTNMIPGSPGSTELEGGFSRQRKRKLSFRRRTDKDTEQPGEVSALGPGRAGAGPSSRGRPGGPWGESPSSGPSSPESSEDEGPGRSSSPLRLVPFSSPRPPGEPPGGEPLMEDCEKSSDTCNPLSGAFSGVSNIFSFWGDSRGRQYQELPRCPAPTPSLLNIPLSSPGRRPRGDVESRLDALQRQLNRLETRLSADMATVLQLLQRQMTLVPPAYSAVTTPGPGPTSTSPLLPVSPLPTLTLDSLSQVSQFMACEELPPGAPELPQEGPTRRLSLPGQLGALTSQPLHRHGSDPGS
# Chain of Sigma non-opioid intracellular receptor 1 (Q99720 whole entry): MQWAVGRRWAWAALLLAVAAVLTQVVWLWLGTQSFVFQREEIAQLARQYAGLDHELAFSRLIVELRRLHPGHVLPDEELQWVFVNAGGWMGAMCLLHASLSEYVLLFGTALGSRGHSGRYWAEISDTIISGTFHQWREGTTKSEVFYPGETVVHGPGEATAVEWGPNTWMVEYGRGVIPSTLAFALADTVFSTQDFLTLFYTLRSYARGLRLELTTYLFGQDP
structure (smiles),measurement,setting,value
Clc1ccc(-n2ccc(OCCN3CCCCC3)n2)cc1Cl,Ki,[1],0.0167 µM
same,Ki,[2],0.0647 µM
CCN(CC)CCCCOc1ccn(-c2ccc(Cl)c(Cl)c2)n1,Ki,[1],0.0172 µM
same,Ki,[2],0.104 µM
Cc1cc(OCCCCN2CCN(C)CC2)nn1-c1ccc(Cl)c(Cl)c1,Ki,[1],0.0099 µM
same,Ki,[2],0.102 µM
Cc1cc(OCCN2CCCCC2)nn1-c1ccc2ccccc2c1,Ki,[1],0.01 µM
same,Ki,[2],0.0847 µM
CN(CCCCOc1ccn(-c2ccc(Cl)c(Cl)c2)n1)Cc1ccccc1,Ki,[1],0.024 µM
same,Ki,[2],0.0463 µM
Clc1ccc(-n2ccc(OCCCN3CCCCC3)n2)cc1Cl,Ki,[1],0.0096 µM
same,Ki,[2],0.0372 µM
Clc1ccc(-n2ccc(OCCCCN3CCSCC3)n2)cc1Cl,Ki,[1],0.0102 µM
same,Ki,[2],0.344 µM
Cc1cc(OCCn2ccnc2)nn1-c1ccc(Cl)c(Cl)c1,Ki,[1],0.294 µM
same,Ki,[2],> 1 µM
Cc1cc(OCCCCN2CCOCC2)nn1-c1ccc(Cl)c(Cl)c1,Ki,[1],0.0133 µM
same,Ki,[2],0.245 µM
CC(C)(C)n1ccc(OCCN2CCOCC2)n1,Ki,[1],> 1 µM
same,Ki,[2],> 1 µM
CC1CCN(CCOc2ccn(-c3ccc(Cl)c(Cl)c3)n2)CC1,Ki,[1],0.0086 µM
same,Ki,[2],0.0328 µM
Cc1cc(SCCN2CCOCC2)nn1-c1ccc(Cl)c(Cl)c1,Ki,[1],0.0142 µM
same,Ki,[2],> 1 µM
same,IC50,[3],> 10 µM
same,microsomal CLint at 10 µM,[4],37 µL/min/mg
Cc1cc(OCCCCn2ccnc2)nn1-c1ccc(Cl)c(Cl)c1,Ki,[1],0.854 µM
same,Ki,[2],> 1 µM
Cc1cc(OCCN2CCOCC2)nn1-c1ccc(Cl)c(Cl)c1,Ki,[2],> 1 µM
same,inhibition in vivo at 16 mg/kg,Mus musculus [5],25%
same,microsomal CLint at 10 µM,[4],12 µL/min/mg
Clc1ccc(-n2ccc(OCCCCN3CCOCC3)n2)cc1Cl,Ki,[1],0.0176 µM
same,Ki,[2],0.829 µM
CC(=O)C1CCN(CCOc2ccn(-c3ccc(Cl)c(Cl)c3)n2)CC1,Ki,[1],0.0072 µM
same,Ki,[2],> 1 µM
same,IC50,[3],4.5 µM
same,inhibition in vivo at 16 mg/kg,Mus musculus [5],73%
same,microsomal CLint at 10 µM,[4],7 µL/min/mg
C[C@@H]1CN(CCCCOc2ccn(-c3ccc(Cl)c(Cl)c3)n2)C[C@H](C)O1,Ki,[1],0.0148 µM
same,Ki,[2],0.153 µM
Clc1ccc(-n2ccc(NCCN3CCCCC3)n2)cc1Cl,Ki,[1],0.0095 µM
same,Ki,[2],0.0905 µM
Cc1cc(OCCN2CCOCC2)nn1-c1ccc(Cl)cc1Cl,Ki,[1],0.044 µM
same,Ki,[2],> 1 µM
same,microsomal CLint at 10 µM,[4],25 µL/min/mg
Clc1ccc(-n2ccc(OCCOCCN3CCCCC3)n2)cc1Cl,Ki,[1],0.0368 µM
same,Ki,[2],0.0142 µM
COc1ccc(-n2nc(OCCN3CCOCC3)cc2C)cc1,Ki,[1],> 1 µM
same,Ki,[2],> 1 µM
COCCN(C)CCCCOc1ccn(-c2ccc(Cl)c(Cl)c2)n1,Ki,[1],0.0082 µM
same,Ki,[2],0.0663 µM
CCOC(=O)N1CCN(CCOc2cc(C)n(-c3ccc(Cl)c(Cl)c3)n2)CC1,Ki,[1],0.044 µM
same,Ki,[2],> 1 µM
same,microsomal CLint at 10 µM,[4],26 µL/min/mg
Clc1ccc(-n2ccc(OCCN3CCCC3)n2)cc1Cl,Ki,[1],0.0157 µM
same,Ki,[2],0.0237 µM
Clc1ccc(-n2ccc(OCCN3CCCCCC3)n2)cc1Cl,Ki,[1],0.0089 µM
CCN(CC)CCOc1cc(C)n(-c2ccc3ccccc3c2)n1,Ki,[1],0.047 µM
same,Ki,[2],0.589 µM
Cc1cc(OCCN2CCCC2)nn1-c1ccc(Cl)c(Cl)c1,Ki,[1],0.0052 µM
same,Ki,[2],0.483 µM
Cc1cc(OCCN2CCC(n3cnc4cccnc43)CC2)nn1-c1ccc(Cl)c(Cl)c1,Ki,[1],0.016 µM
same,Ki,[2],0.435 µM
CC(=O)N1CCN(CCCCOc2cc(C)n(-c3ccc4ccccc4c3)n2)CC1,Ki,[1],0.296 µM
same,Ki,[2],0.324 µM
Cc1cc(OCCN2CCOCC2=O)nn1-c1ccc2ccccc2c1,Ki,[1],> 1 µM
same,Ki,[2],> 1 µM
Cc1cc(OCCN2CCOCC2)n(-c2ccc3ccccc3c2)n1,Ki,[1],> 1 µM
same,Ki,[2],> 1 µM
Cc1cc(OCCCCn2ccc3c2CCCC3=O)nn1-c1ccc(Cl)c(Cl)c1,Ki,[1],> 1 µM
same,Ki,[2],> 1 µM
Cc1cc(OCCN2CCCCCC2)nn1-c1ccc(Cl)c(Cl)c1,Ki,[1],0.0094 µM
same,Ki,[2],0.0635 µM
Clc1ccc(-n2nc(OCCN3CCOCC3)cc2-c2ccccc2)cc1Cl,Ki,[1],0.224 µM
same,Ki,[2],> 1 µM
Cc1cc(OCCCN2CCCC2)nn1-c1ccc(Cl)c(Cl)c1,Ki,[1],0.0104 µM
same,Ki,[2],0.062 µM
CC(C)c1cc(OCCN2CCOCC2)nn1-c1ccc(Cl)c(Cl)c1,Ki,[1],0.172 µM
same,Ki,[2],> 1 µM
Cc1cc(OCCCCN2C[C@@H](C)O[C@@H](C)C2)nn1-c1ccc2ccccc2c1,Ki,[1],0.065 µM
same,Ki,[2],0.226 µM
Cc1cc(OCCN2CCN(c3ccccc3)CC2)nn1-c1ccc(Cl)c(Cl)c1,Ki,[1],0.0148 µM
same,Ki,[2],0.563 µM
Cc1c(OCCN2CCOCC2)nn(-c2ccc3ccccc3c2)c1C,Ki,[1],0.139 µM
same,Ki,[2],> 1 µM
CCN(CC)CCOc1cc(C)n(-c2ccc(Cl)c(Cl)c2)n1,Ki,[1],0.0099 µM
same,Ki,[2],0.25 µM
Cc1cc(OCCN2CCOCC2)nn1-c1cccc(Cl)c1,Ki,[1],0.18 µM
same,Ki,[2],> 1 µM
O=C(CN1CCCCC1)Nc1ccn(-c2ccc(Cl)c(Cl)c2)n1,Ki,[1],0.0808 µM
same,Ki,[2],> 1 µM
CC(=O)N1CCN(CCOc2cc(C)n(-c3ccc4ccccc4c3)n2)CC1,Ki,[1],0.0834 µM
same,Ki,[2],> 1 µM
Cc1cc(OCCCCN2CCC(c3ccccc3)CC2)nn1-c1ccc(Cl)c(Cl)c1,Ki,[1],0.026 µM
same,Ki,[2],0.0267 µM
Clc1ccc(-n2ccc(OCCN3CCOCC3)n2)cc1,Ki,[1],0.0178 µM
same,Ki,[2],0.357 µM
CN1CCN(CC(O)COc2ccn(-c3ccc(Cl)c(Cl)c3)n2)CC1 (stereo unspecified),Ki,[1],0.233 µM
same,Ki,[2],> 1 µM
CN1CCN(CCCOc2ccn(-c3ccc(Cl)c(Cl)c3)n2)CC1,Ki,[1],0.0165 µM
same,Ki,[2],0.307 µM
CC(=O)c1c(OCCN2CCOCC2)nn(-c2ccc(Cl)c(Cl)c2)c1C,Ki,[1],0.741 µM
same,Ki,[2],> 1 µM
Cc1cc(OCCN2CCC(C)CC2)nn1-c1ccc(Cl)c(Cl)c1,Ki,[1],0.0084 µM
same,Ki,[2],0.161 µM
Cc1cc(OCCCN2CCN(C)CC2)nn1-c1ccc(Cl)c(Cl)c1,Ki,[1],0.0133 µM
same,Ki,[2],0.17 µM
Cc1cc(OCCNC2CCCCC2)nn1-c1ccc(Cl)c(Cl)c1,Ki,[1],0.0085 µM
same,Ki,[2],0.0088 µM
Cc1cc(OCCN2C[C@@H](C)O[C@@H](C)C2)nn1-c1ccc2ccccc2c1,Ki,[1],0.0338 µM
same,Ki,[2],> 1 µM
same,IC50,[3],7.4 µM
same,microsomal CLint at 10 µM,[4],25 µL/min/mg
Cc1cc(OCCCCN2CCCC2)nn1-c1ccc(Cl)c(Cl)c1,Ki,[1],0.0069 µM
same,Ki,[2],0.0126 µM
O=S(=O)(CCN1CCOCC1)OCCOc1ccn(-c2ccc(Cl)c(Cl)c2)n1,Ki,[1],0.879 µM
same,Ki,[2],> 1 µM
c1ccc2cc(-n3ccc(OCCN4CCOCC4)n3)ccc2c1,Ki,[1],0.0333 µM
same,Ki,[2],> 1 µM
same,IC50,[3],> 10 µM
same,inhibition in vivo at 32 mg/kg,Mus musculus [6],55%
same,microsomal CLint at 10 µM,[4],6 µL/min/mg
Cc1cc(OCCCCN2CCCCC2)nn1-c1ccc(Cl)c(Cl)c1,Ki,[1],0.0071 µM
same,Ki,[2],0.0475 µM
Cc1cc(OCCN2CCOCC2)nn1-c1ccccc1,Ki,[1],> 1 µM
same,Ki,[2],> 1 µM
Cc1c(OCCN2CCOCC2)nn(-c2ccc(Cl)c(Cl)c2)c1C,Ki,[1],0.0094 µM
same,Ki,[2],0.351 µM
Clc1ccc(-n2ccc(NCCN3CCOCC3)n2)cc1Cl,Ki,[1],0.0394 µM
same,Ki,[2],0.562 µM
Cc1cc(OCCN2CCN(C)CC2)nn1-c1ccc(Cl)c(Cl)c1,Ki,[1],0.0111 µM
same,Ki,[2],> 1 µM
same,IC50,[3],7.4 µM
same,inhibition in vivo at 16 mg/kg,Mus musculus [5],27%
same,microsomal CLint at 10 µM,[4],3 µL/min/mg
CC(C)C[C@H](CN)CC(=O)O [PREGABALIN],Activity,Mus musculus [7],Toxic
same,inhibition,Mus musculus [8],Active
same,inhibition,Mus musculus [9],Active
c1cn(C2CCCCC2)nc1OCCN1CCOCC1,Ki,[1],0.0231 µM
same,Ki,[2],> 1 µM
same,IC50,[3],> 10 µM
same,inhibition in vivo at 16 mg/kg,Mus musculus [5],20%
CCN(CC)CCCCOc1cc(C)n(-c2ccc(Cl)c(Cl)c2)n1,Ki,[1],0.0117 µM
same,Ki,[2],0.0455 µM
Cc1cc(OCCCCN2CCOCC2)nn1-c1ccc2ccccc2c1,Ki,[1],0.0991 µM
same,Ki,[2],0.428 µM
OC(COc1ccn(-c2ccc(Cl)c(Cl)c2)n1)CN1CCOCC1 (stereo unspecified),Ki,[1],0.128 µM
same,Ki,[2],> 1 µM
Cc1cc(OCCN2CCCC2)nn1-c1ccc2ccccc2c1,Ki,[1],0.0099 µM
same,Ki,[2],0.395 µM
CN1CCN(CCc2ccc(Cl)c(Cl)c2)CC1,Ki,[1],0.0063 µM
same,Ki,[2],0.318 µM
O=C(CCCN1CCC(O)(c2ccc(Cl)cc2)CC1)c1ccc(F)cc1 [HALOPERIDOL],Ki,[2],0.022 µM
Cc1cc(OCCCN2CCOCC2)nn1-c1ccc(Cl)c(Cl)c1,Ki,[1],0.0189 µM
same,Ki,[2],0.638 µM
Cc1cc(OCCN2CCCCC2)nn1-c1ccc(Cl)c(Cl)c1,Ki,[1],0.0055 µM
same,Ki,[2],0.209 µM
Clc1ccc(-n2ccc(OCCCN3CCOCC3)n2)cc1Cl,Ki,[1],0.0161 µM
same,Ki,[2],0.394 µM
Clc1ccc(-n2ccc(OCCN3CCOCC3)n2)cc1Cl,Ki,[1],0.0082 µM
same,Ki,[2],0.28 µM
